{
  "source": "paper PMC6700816",
  "about": "“A novel starch-binding laccase from the wheat pathogen Zymoseptoria tritici highlights the functional diversity of ascomycete laccases” (BMC Biotechnology, 2019)",
  "biological_target": "T1, ZtrLac1A (Zymoseptoria tritici, UniProt F9XCG9)",
  "T1 construct": "gene MYCGRDRAFT_109666; mature protein residues 46-723, native signal peptide removed; catalytic module (556 residues) plus linker plus CBM20; secreted by Pichia pastoris X-33 (pPICZalphaA); N-glycosylated; 79 kDa calculated, 93 kDa on SDS-PAGE; EC 1.10.3.2",
  "T1 sequence (F9XCG9 46-723)": "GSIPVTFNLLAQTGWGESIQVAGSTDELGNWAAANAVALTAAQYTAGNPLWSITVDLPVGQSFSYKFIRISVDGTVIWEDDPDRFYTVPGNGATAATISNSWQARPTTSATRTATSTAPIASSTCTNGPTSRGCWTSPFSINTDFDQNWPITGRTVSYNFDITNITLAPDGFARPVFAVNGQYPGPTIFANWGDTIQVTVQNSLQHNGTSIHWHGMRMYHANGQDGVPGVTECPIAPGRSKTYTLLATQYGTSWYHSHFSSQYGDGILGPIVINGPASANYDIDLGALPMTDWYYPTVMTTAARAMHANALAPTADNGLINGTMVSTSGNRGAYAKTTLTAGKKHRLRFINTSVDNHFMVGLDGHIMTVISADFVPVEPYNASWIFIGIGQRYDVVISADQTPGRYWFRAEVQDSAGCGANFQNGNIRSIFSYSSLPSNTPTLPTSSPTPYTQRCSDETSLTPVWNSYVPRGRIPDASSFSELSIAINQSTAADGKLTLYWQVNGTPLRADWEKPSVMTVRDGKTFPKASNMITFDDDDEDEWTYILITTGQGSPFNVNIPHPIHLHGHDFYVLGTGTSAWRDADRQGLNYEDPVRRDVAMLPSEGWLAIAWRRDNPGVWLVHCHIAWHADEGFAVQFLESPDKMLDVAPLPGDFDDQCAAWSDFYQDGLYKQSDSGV",
  "assay": "isothermal titration calorimetry, one-site model",
  "details": "20 mM sodium acetate, pH 5.5, 25 °C; starch mimic, CBM20 starch-binding module, not the laccase active site",
  "description": "isothermal titration calorimetry, one-site model on ZtrLac1A | ZtrLac1A binds to β-CD with an association constant of Ka",
  "data": [
    {"smiles": "OC[C@H]1O[C@@H]2O[C@H]3[C@H](O)[C@@H](O)[C@@H](O[C@H]4[C@H](O)[C@@H](O)[C@@H](O[C@H]5[C@H](O)[C@@H](O)[C@@H](O[C@H]6[C@H](O)[C@@H](O)[C@@H](O[C@H]7[C@H](O)[C@@H](O)[C@@H](O[C@H]8[C@H](O)[C@@H](O)[C@@H](O[C@H]1[C@H](O)[C@H]2O)O[C@@H]8CO)O[C@@H]7CO)O[C@@H]6CO)O[C@@H]5CO)O[C@@H]4CO)O[C@@H]3CO", "note": "[β-CD, β-cyclodextrin]", "values": [
      {"measurement": "Kd", "value": "32.6 ± 2.4", "unit": "µM"}
    ]}
  ]
}
